{
  "source": "patent US5070207A",
  "about": "“Phospholipase A2 inhibitors” (American Home Products Corporation, priority 1990, dated 1991)",
  "system": "PLA2 (A. piscivorus piscivorus) induced paw edema",
  "test": "in vivo PLA2 murine paw edema assay",
  "parameters": "species or system mouse (male CD-1)",
  "details": "for ED50: Mus musculus, ip",
  "description": "The ability of the compounds of the invention to inhibit paw edema induced by the exogenous administration of PLA2 is measured in the in vivo PLA2 murine paw edema assay.\nNon-fasted, male CD-1 mice (8 weeks old; 31-36 grams) are placed in plastic boxes in groups of six. The right hind paw volume is measured using mercury plethysmography (zero time). Compounds are dosed orally (0.5 mL of 0.5% Tween-80) 1 or 3 hours prior to PLA2 injection or intravenously (0.2 mL in 0.3% dimethylsulfoxide/saline) 3 minutes prior to PLA2 injection. A solution of purified PLA2, from the diamond back cotton mouth snake (A. piscivorus piscivorus) is prepared in saline at a concentration of 6 μg/mL. Fifty (50) μL (0.3 μg) of this PLA2 solution is injected subcutaneously into the right hind paw with a plastic 1 mL plastic syringe (27 gauge, 1\" needle). Paw volume of the injected paw is measured again at 10 minutes, 30 minutes and 60 minutes after PLA2 injection. Animals are euthanized with CO2 at the completion of the study.\nThe paw edema is calculated by subtracting the zero time volume from the volume recorded at each time period. Mean paw edema for each treatment group is then calculated and expressed as (μL±S.E.). Drug effects are expressed as a percent change from control (vehicle) values. Statistical significance is determined by a oneway analysis of variance with LSD comparison to control (p<0.05). ED50 's are determined using repression analysis.",
  "data": [
    {"molecule": "C[C@@H]1C[C@H]2[C@@H]3CCC4=CC(=O)C=C[C@]4(C)[C@@]3(F)[C@@H](O)C[C@]2(C)[C@@]1(O)C(=O)CO", "note": "[Dexamethasone, reference compound]", "values": [
      {"measurement": "ED50 at +10 min.", "setting": "p.o. 3 hr, standard drug", "value": 10, "unit": "mg/kg"}
    ]},
    {"molecule": "O=C(C#CCCCOc1ccc(F)cc1)C(F)(F)F", "note": "[Example 3, 1,1,1-Trifluoro-7-(4-fluorophenoxy)-3-heptyn-2-one]", "values": [
      {"measurement": "ED50", "value": 30, "unit": "mg/kg"}
    ]},
    {"molecule": "O=C(C#CCCCOc1ccc(Cl)cc1)C(F)(F)CCc1ccccc1", "note": "[Example 7, 9-(4-Chlorophenoxy)-3,3-difluoro-1-phenyl-5-nonyn-4-one]", "values": [
      {"measurement": "ED50", "value": 3, "unit": "mg/kg"}
    ]},
    {"molecule": "O=C(C#CCCCn1c2ccccc2c2ccccc21)C(F)(F)F", "note": "[Example 2, 7-(9H-Carbazol-9-yl)-1,1,1-trifluoro-3-heptyn-2-one]", "values": [
      {"measurement": "ED50", "value": 1, "unit": "mg/kg"}
    ]},
    {"molecule": "CC(C)(C)c1ccc(OCCCC#CC(=O)C(F)(F)F)cc1", "note": "[Example 4, 7-[4-(1,1-Dimethylethyl)phenoxy]-1,1,1-trifluoro-3-heptyn-2-one]", "values": [
      {"measurement": "% Change in Edema 10 min", "setting": "30 mg/kg i.p.", "value": -45, "unit": "%"}
    ]},
    {"molecule": "Luffarrellolide [reference compound]", "values": [
      {"measurement": "ED50 at +10 min.", "setting": "p.o., standard drugs", "value": "Not Active"}
    ]},
    {"molecule": "COc1cccc2c1cc([N+](=O)[O-])c1c(C(=O)O)cc3c(c12)OCO3", "note": "[Aristolochic Acid, reference compound]", "values": [
      {"measurement": "ED50 at +10 min.", "setting": "p.o., standard drugs", "value": "Not Active"}
    ]},
    {"molecule": "COc1ccc2cc([C@H](C)C(=O)O)ccc2c1", "note": "[Naproxen, reference compound]", "values": [
      {"measurement": "ED50 at +10 min.", "setting": "p.o., standard drugs", "value": 18, "unit": "mg/kg"}
    ]},
    {"molecule": "O=C(C#CCCCOc1ccc(Cl)cc1)C(F)(F)F", "note": "[Example 1, 7-(4-Chlorophenoxy)-1,1,1-trifluoro-3-heptyn-2-one]", "values": [
      {"measurement": "% Change in Edema 10 min", "setting": "10 mg/kg i.v.", "value": -64, "unit": "%"},
      {"measurement": "% Change in Edema 30 min", "setting": "10 mg/kg i.v.", "value": -34, "unit": "%"},
      {"measurement": "% Change in Edema 60 min", "setting": "10 mg/kg i.v.", "value": -39, "unit": "%"},
      {"measurement": "% Change in Edema 10 min", "setting": "100 mg/kg p.o.", "value": -26, "unit": "%"},
      {"measurement": "% Change in Edema 30 min", "setting": "100 mg/kg p.o.", "value": -37, "unit": "%"},
      {"measurement": "% Change in Edema 60 min", "setting": "100 mg/kg p.o.", "value": -23, "unit": "%"},
      {"measurement": "ED50", "value": 3, "unit": "mg/kg"}
    ]}
  ]
}
